The record followed here is ChEMBL document CHEMBL5042519, “Design and synthesis of marine sesterterpene analogues as novel estrogen receptor α degraders for breast cancer treatment” (Eur J Med Chem, 2022).

Series [1] is described as follows: Antiproliferative activity against human MCF-10A cells assessed as reduction in cell viability after 48 hrs by MTT assay. Format: toxicity, cell-based. Background: Tetrazolium assays rely on reduction of a dye to a coloured formazan, in cell work by metabolically active cells.
The test system of series [2] is MCF7. The series can be described thus: Antiproliferative activity against human MCF7 cells assessed as reduction in cell viability after 48 hrs by MTT assay. It counts as functional, cell-based. Conditions: MCF7, 48 h.
Series [3] deals with MCF7. The series can be described thus: Antiproliferative activity against human MCF7/ADR cells assessed as reduction in cell viability after 48 hrs by MTT assay. Format: functional, cell-based. To be noted: MCF7, 48 h.
Series [4] is described as follows: Resistance index, ratio of IC50 for antiproliferative activity against human MCF7/ADR cells to IC50 for antiproliferative activity against human MCF7 cells. It counts as functional.
In the next series the test system is MDA-MB-231. Kind of series: Antiproliferative activity against human MDA-MB-231 cells assessed as reduction in cell viability after 48 hrs by MTT assay. To be noted: MDA-MB-231, 48 h.
Series [5] in a line: Selectivity index, ratio of IC50 for antiproliferative activity against human MCF-10A cells to IC50 for antiproliferative activity against human MDA-MB-231 cells by MTT assay. It counts as toxicity, cell-based. To be noted: MCF-10A cells versus MDA-MB-231 cells, read-out: Ratio IC50.
Series [6] deals with T1, Estrogen receptor (Homo sapiens) (UniProt P03372).
T1 sequence (whole entry): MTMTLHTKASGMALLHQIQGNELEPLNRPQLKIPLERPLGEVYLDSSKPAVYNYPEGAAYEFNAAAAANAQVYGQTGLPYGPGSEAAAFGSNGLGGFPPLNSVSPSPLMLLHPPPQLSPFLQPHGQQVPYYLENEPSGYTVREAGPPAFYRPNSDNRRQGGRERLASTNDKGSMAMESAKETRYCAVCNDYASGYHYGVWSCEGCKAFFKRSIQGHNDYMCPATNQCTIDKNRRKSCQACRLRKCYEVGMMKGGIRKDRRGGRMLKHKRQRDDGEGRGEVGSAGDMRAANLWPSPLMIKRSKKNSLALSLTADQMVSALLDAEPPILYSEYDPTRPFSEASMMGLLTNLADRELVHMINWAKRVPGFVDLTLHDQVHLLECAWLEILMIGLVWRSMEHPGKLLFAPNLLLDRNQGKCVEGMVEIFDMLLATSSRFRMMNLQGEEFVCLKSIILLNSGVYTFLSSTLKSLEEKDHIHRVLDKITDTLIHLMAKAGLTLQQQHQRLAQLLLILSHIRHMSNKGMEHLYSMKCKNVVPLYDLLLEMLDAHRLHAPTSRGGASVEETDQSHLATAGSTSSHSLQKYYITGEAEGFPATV
The series can be described thus: Induction of ERalpha degradation in human MCF7 cells assessed as decrease in ERalpha protein expression at 1 uM incubated for 24 hrs by Western blot analysis. It counts as cell-based. In general terms: A western blot detects proteins with antibodies after separation by electrophoresis.

The nature of series [7]: Metabolic stability in rat plasma assessed as parent compound remaining incubated for 60 mins in presence of NADPH by UPLC-MS analysis. Format: ADME, cell-free. Conditions: read-out: Stability.
A short description of series [8]: Metabolic stability in rat liver microsomes assessed as assessed as intrinsic clearance incubated for 60 mins in presence of NADPH by UPLC-MS analysis. Format: ADME, Microsome. To be noted: read-out: CLH.

Each structure is given as a SMILES string. Activity calls are given as the source filed them. No cut-off for these calls is given here.

Regarding `CC1=CC(=O)[C@H]2/C(C=O)=C\C[C@H]3[C@@H]([C@@H](C)/C=C\C=C/C(=O)OCCOCCOC(=O)CC45CC6CC(CC(C6)C4)C5)CC[C@]3(C)C[C@H]12`, the half-inhibitory concentration (IC50) at 48 h in series [1] was 2400 nM. For the same compound, the IC50 is 690 nM in the series with MCF7 [2], 870 nM in the series on MCF7 [3] and 540 nM with MDA-MB-231. The “Ratio IC50” value in series [4] came out at 1.26. For the same compound, in series [5], the selectivity ratio turned out to be 3.48. Besides, the result in [6] was Active.

Regarding `CCCCCCCCCCOC(=O)/C=C/[C@H](C)[C@H]1CC[C@]2(C)C[C@@H]3C(C)=CC(=O)[C@H]3/C(C=O)=C\C[C@@H]12`, the concentration for half-maximal inhibition (IC50) at 48 h in series [1] worked out at 2160 nM. Further, the IC50 in the series on MCF7 [2] came out at 1660 nM; in the series with MCF7 [3] it was 1030 nM; in the series with MDA-MB-231, 300 nM. For the same compound, in series [4], the “Ratio IC50” value worked out at 0.62. In addition, the selectivity ratio in [5] stood at 1.3.

With `CC(C)=C/C=C\[C@H](C)[C@H]1CC[C@]2(C)C[C@@H]3C(C)=CC(=O)[C@H]3/C(C=O)=C\C[C@@H]12`, the IC50 at 48 h in series [1] was found to be 3680 nM. The IC50 is 3920 nM with MCF7 [2], 2480 nM in the series with MCF7 [3] and 2100 nM in the series on MDA-MB-231. The “Ratio IC50” value in [4] is recorded as 0.63. Moreover, the selectivity ratio in series [5] is 0.94. Also, the result in series [6] was Active. In addition, the remaining at 1 h in series [7] stood at 97%. In addition, the microsomal CLint in [8] is 14.5 µL/min/mg.

For `CCCCCCCCCOC(=O)/C=C\C=C/[C@H](C)[C@H]1CC[C@]2(C)C[C@@H]3C(C)=CC(=O)[C@H]3/C(C=O)=C\C[C@@H]12`, the IC50 at 48 h in series [1] was determined as 4830 nM. The IC50 in the series with MCF7 [2] is 2530 nM; in the series on MCF7 [3], 1120 nM; with MDA-MB-231 it was 770 nM. Moreover, the “Ratio IC50” value in series [4] worked out at 0.44. Moreover, in [5], the selectivity ratio was 1.91.

Turning to `CCCCCCOC(=O)/C=C\C=C/[C@H](C)[C@H]1CC[C@]2(C)C[C@@H]3C(C)=CC(=O)[C@H]3/C(C=O)=C\C[C@@H]12`, the IC50 at 48 h in series [1] was determined as 1580 nM. The IC50 was 1040 nM in the series with MCF7 [2], 790 nM in the series with MCF7 [3] and 640 nM with MDA-MB-231. For the same compound, in [4], the “Ratio IC50” value was determined as 0.76. In addition, the selectivity ratio in [5] stood at 1.52. The outcome in series [6] was Active.

As a reminder, the IC50 is the concentration that gives 50% inhibition.
